# Data published in US20090285917A1, “COMPOSITION COMPRISING COMPLEX CRUDE DRUG EXTRACTS SHOWING ANTI-ALLERGIC RHINITIS, ANTI-ATOPIC DERMATITIS AND ANTI-ASTHMA ACTIVITY” (priority 2006, published 2009).
# Counter-ions that a name gives are not always drawn.
# Tested on: Passive Cutaneous Anaphylaxis in male mouse
# Test: Passive cutaneous anaphylaxis (PCA), evans blue in ears
# Assay type: in vivo
# Protocol: Anti-DNP (anti-Dinitrophenyl) of 1.2 ug/mL, […], Sigma was injected by 10 ul into both ears of a male mouse, and 47 hours after antibody Dinitrophenyl injection, the sample is oral-administrated. One hour later (48 hours after antibody-Dinitrophenyl injection), 1.25 mg of DNP-albumin, […], Sigma and a biological salt solution dissolved with 1.25 mg of evans blue, […], Sigma was injected into a tail vein for thereby causing a certain reaction. Neck back bone was broken, and the mouse was dead, and the evans blue color component was measured from both ears. As control groups, promethazine hydrochloride, […], Sigma was used.
smiles,measurement,setting,value
"CC(CN1c2ccccc2Sc2ccccc21)N(C)C (stereo not drawn) [Promethazine hydrochloride, promethazine hydrochloride]",Amount of Color,"administration amount 2, oral",7.8 ± 0.5 ug/a pair of ears
same,Amount of Color,"administration amount 5, oral",5.4 ± 1.1 ug/a pair of ears
same,Amount of Color,"administration amount 10, oral",1.7 ± 1.0 ug/a pair of ears
